According to the supplement of paper PMC10307832:

Key:
Test in all cases: relative viability (nuclei count vs DMSO), 5 days (fraction); higher = more cells survive
[1] = compound: C(C(=O)C(=O)O)Br [Bromopyruvate] + Nc1nc2[nH]cc(CCc3ccc(C(=O)N[C@@H](CCC(=O)O)C(=O)O)cc3)c2c(=O)[nH]1 [Pemetrexed] (partner 0.2 µM)
In short: (§1)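 Medians of duplicate plates are given as relative viability. That measure is the nuclei count in treated wells divided by the count in vehicle wells. Counts were taken on 4× images of lung cancer cell lines in 1536-well plates, 5 days after pin-tool dosing the day after seeding with one drug alone or a fixed anchor-drug dose plus five library-drug doses (not always all listed) in √10 steps.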

[2] = compound: CC(O)(CS(=O)(=O)c1ccc(F)cc1)C(=O)Nc1ccc(C#N)c(C(F)(F)F)c1 [Bicalutamide] + CC(=O)Nc1cccc(-n2c(=O)n(C3CC3)c(=O)c3c(Nc4ccc(I)cc4F)n(C)c(=O)c(C)c32)c1 [Trametinib] (partner 0.02 µM)
In short: as §1

Bicalutamide + Foretinib = compound: CC(O)(CS(=O)(=O)c1ccc(F)cc1)C(=O)Nc1ccc(C#N)c(C(F)(F)F)c1 [Bicalutamide] + COc1cc2c(Oc3ccc(NC(=O)C4(C(=O)Nc5ccc(F)cc5)CC4)cc3F)ccnc2cc1OCCCN1CCOCC1 [Foretinib] (partner 0.25 µM)
In short: as §1

[3] = compound: CC(O)(CS(=O)(=O)c1ccc(F)cc1)C(=O)Nc1ccc(C#N)c(C(F)(F)F)c1 [Bicalutamide] + Nc1nc2[nH]cc(CCc3ccc(C(=O)N[C@@H](CCC(=O)O)C(=O)O)cc3)c2c(=O)[nH]1 [Pemetrexed] (partner 0.2 µM)
In short: as §1

Row | Cell Line | relative viability ([1]; first compound 1 µM) | relative viability ([1]; first compound 3.162 µM) | relative viability ([1]; first compound 10 µM) | relative viability ([1]; first compound 31.62 µM) | relative viability ([1]; first compound 100 µM) | relative viability ([2]; first compound 0.08 µM) | relative viability ([2]; first compound 0.253 µM) | relative viability ([2]; first compound 0.8 µM) | relative viability ([2]; first compound 2.53 µM) | relative viability (Bicalutamide + Foretinib; first compound 0.08 µM) | relative viability (Bicalutamide + Foretinib; first compound 0.253 µM) | relative viability (Bicalutamide + Foretinib; first compound 0.8 µM) | relative viability (Bicalutamide + Foretinib; first compound 2.53 µM) | relative viability ([3]; first compound 0.08 µM) | relative viability ([3]; first compound 0.253 µM) | relative viability ([3]; first compound 0.8 µM) | relative viability ([3]; first compound 2.53 µM)
1 | NCI-H2023 | 0.231 | 0.246 | 0.273 | 0.205 | 0.187 | 0.547 | 0.52 | 0.556 | 0.382 | 0.957 | 0.506 | 0.845 | 0.774 | 0.267 | 0.175 | 0.279 | 0.223
2 | SW 900 | 0.487 | 0.463 | 0.555 | 0.446 | 0.472 | 0.778 | 0.678 | 0.756 | 0.809 | 1.15 | 0.866 | 1.04 | 1.07 | 0.444 | 0.47 | 0.562 | 0.467
3 | NCI-H3122 | 0.209 | 0.193 | 0.186 | 0.183 | 0.192 | 0.202 | 0.241 | 0.225 | 0.258 | 1.02 | 0.9 | 0.996 | 1.01 | 0.202 | 0.193 | 0.197 | 0.199
4 | NCI-H1755 | 0.44 | 0.441 | 0.371 | 0.475 | 0.52 | 0.738 | 0.774 | 0.776 | 0.751 | 0.895 | 0.883 | 0.96 | 0.853 | 0.386 | 0.379 | 0.434 | 0.477
5 | HCC-78 | 0.938 | 0.92 | 0.95 | 0.895 | 0.95 | 0.94 | 0.653 | 0.86 | 0.779 | 0.566 | 0.543 | 0.55 | 0.52 | 0.947 | 0.708 | 0.962 | 0.939
6 | LOU-NH91 | 0.402 | 0.371 | 0.366 | 0.402 | 0.443 | 0.755 | 0.724 | 0.82 | 0.791 | 0.969 | 0.79 | 0.963 | 0.96 | 0.429 | 0.379 | 0.39 | 0.378
7 | NCI-H322M | 0.614 | 0.663 | 0.592 | 0.585 | 0.637 | 0.537 | 0.541 | 0.502 | 0.503 | 1.01 | 0.851 | 1.16 | 1.06 | 0.594 | 0.553 | 0.635 | 0.709
8 | HCC-827 | 0.26 | 0.247 | 0.26 | 0.262 | 0.266 | 0.58 | 0.459 | 0.552 | 0.547 | 1.09 | 0.881 | 1.04 | 1.01 | 0.261 | 0.218 | 0.289 | 0.306
9 | SW 1573 | 0.783 | 0.792 | 0.899 | 0.436 | 0.0549 | 0.668 | 0.473 | 0.748 | 0.608 | 0.929 | 0.71 | 1.08 | 0.778 | 0.952 | 0.749 | 1.02 | 0.819
